Data taken from PMC11062922 (Nature Chemical Biology, 2023).

What was measured:
[1] = target: T1, EPHB6 (Homo sapiens, UniProt O15197); test: Kinobeads two-dose competition binding: EPHB6; conditions: target EPHB6
T1 construct: to maximize the representation of endogenous proteins; endogenous in cells
T1 sequence (O15197 32-1021): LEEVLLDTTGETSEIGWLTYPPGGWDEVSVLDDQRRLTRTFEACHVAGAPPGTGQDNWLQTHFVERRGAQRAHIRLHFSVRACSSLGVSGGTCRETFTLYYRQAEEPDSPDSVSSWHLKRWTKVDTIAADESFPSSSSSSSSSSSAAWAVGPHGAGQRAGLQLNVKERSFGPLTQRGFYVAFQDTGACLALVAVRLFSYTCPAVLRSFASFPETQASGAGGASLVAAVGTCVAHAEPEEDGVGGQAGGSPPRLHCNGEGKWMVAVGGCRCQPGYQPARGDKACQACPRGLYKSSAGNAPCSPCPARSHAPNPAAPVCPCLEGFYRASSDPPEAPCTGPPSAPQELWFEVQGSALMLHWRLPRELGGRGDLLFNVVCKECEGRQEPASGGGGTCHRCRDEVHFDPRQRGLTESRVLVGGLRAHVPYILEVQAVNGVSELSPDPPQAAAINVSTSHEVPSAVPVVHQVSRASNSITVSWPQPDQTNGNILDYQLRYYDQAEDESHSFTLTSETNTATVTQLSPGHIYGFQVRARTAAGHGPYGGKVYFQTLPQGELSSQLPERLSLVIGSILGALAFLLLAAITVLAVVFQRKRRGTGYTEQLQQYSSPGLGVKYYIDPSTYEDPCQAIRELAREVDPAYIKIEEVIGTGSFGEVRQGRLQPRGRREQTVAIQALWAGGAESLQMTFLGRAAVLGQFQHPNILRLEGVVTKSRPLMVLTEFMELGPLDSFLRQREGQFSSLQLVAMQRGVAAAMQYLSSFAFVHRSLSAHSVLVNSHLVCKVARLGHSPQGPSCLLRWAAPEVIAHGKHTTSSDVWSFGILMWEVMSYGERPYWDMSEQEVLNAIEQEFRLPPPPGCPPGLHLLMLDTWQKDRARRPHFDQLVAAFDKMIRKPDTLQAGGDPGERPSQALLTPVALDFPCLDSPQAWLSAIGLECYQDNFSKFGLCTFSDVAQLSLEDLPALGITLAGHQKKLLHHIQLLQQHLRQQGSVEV
Description: Briefly, Kinobeads comprise seven broad-spectrum small molecule kinase inhibitors immobilized on Sepharose beads. […]. Compounds of interest are set to compete for target protein binding with Kinobeads in the lysate and the amount of a given protein bound to Kinobeads in the presence of a compound can be quantified relative to a dimethylsulfoxide (DMSO) vehicle control by label-free mass spectrometry. This assay measures the physical interaction of a compound with thousands of endogenous proteins in parallel and, when systematically increasing the concentration of competitor, enables the calculation of an apparent interaction constant ( Kdapp ) for each compound and protein.
Kinobeads pulldown experiments were performed as described previously[13],[14],[17] with minor modification. […] The protein concentration was adjusted to 5 mg ml^−1. Kinase inhibitors were spiked into 0.5 ml of cell lysate at final concentrations of 100 and 1,000 nM (or DMSO, 0.3, 1, 3, 10, 30, 100, 300 and 1,000 nM for full dose experiments). […] Lysates were incubated for 45 min at 4 °C. Subsequently, lysates were incubated with Kinobeads ε (17.5 µl of settled beads) for 30 min at 4 °C. To assess the degree of protein depletion from the lysates by Kinobeads, the flow through of the DMSO control was recovered for a pulldown of pulldown experiment where the lysate was incubated a second time with fresh Kinobeads. Beads were washed in three steps with buffer containing 0.4%, 0.2% and no IGEPAL. Bound proteins were reduced with 50 mM DTT in 8 M Urea, 40 mM Tris-HCl pH 7.4 for 30 min at room temperature. After alkylation with 55 mM chloroacetamide, the urea concentration was reduced to 1–2 M and proteins were digested with trypsin. Acidified peptides were desalted and concentrated using SepPak tC18 µEluation plates (Waters). Samples were frozen, dried by vacuum centrifugation and stored at −20 °C.
Each kinase inhibitor was processed together with all DMSO controls of the same plate. Additionally, each search was supplemented with five high quality DMSO controls for consistent peptide identification and protein grouping. The resultant file (proteinGroups.txt) was used for subsequent filtering, normalization, data visualization and target annotation that was automatically performed by a data processing pipeline built in house that used R (including the ‘drc’ and ‘heatmap’ packages). First, reverse hits, potential contaminants and not quantified proteins in the DMSO control samples were discarded. Protein raw and label-free quantification intensities were normalized to the median DMSO control intensity to obtain relative residual binding intensities for each protein group at every inhibitor concentration and standard deviations of the DMSO control intensity were calculated. IC50 values were estimated based on the following equation IC50=I×100−inhibition/inhibition where [I] is the inhibitor concentration that was used for IC50 calculation and ‘inhibition’ the relative residual binding intensity. […]. Estimated Kdapp values were then calculated by multiplying the estimated IC50 values with a protein-dependent correction factor that was limited to a maximum value of one. The correction factor accounts for the depletion of a target protein from the lysate by Kinobeads. The depletion can be measured by the ratio of the amount of protein captured in two consecutive pulldowns of the same DMSO control lysate. In this study, correction factors were determined in separate experiments using the same lysate mixture and the same bead batch. Correction factors were set to the median of all correction factors. Targets of kinase inhibitors were annotated using the previously published random forest classifier. A training data set was annotated manually. […]

[2] = tested on: CSNK1A1; test: Kinobeads competition binding: CSNK1A1; parameters: species or system human; conditions: target CSNK1A1
[3] = target: T2, EPHA7 (Homo sapiens, UniProt Q15375); test: Kinobeads competition binding: EPHA7; conditions: target EPHA7
T2 construct: endogenous in cells
T2 sequence (Q15375 28-998): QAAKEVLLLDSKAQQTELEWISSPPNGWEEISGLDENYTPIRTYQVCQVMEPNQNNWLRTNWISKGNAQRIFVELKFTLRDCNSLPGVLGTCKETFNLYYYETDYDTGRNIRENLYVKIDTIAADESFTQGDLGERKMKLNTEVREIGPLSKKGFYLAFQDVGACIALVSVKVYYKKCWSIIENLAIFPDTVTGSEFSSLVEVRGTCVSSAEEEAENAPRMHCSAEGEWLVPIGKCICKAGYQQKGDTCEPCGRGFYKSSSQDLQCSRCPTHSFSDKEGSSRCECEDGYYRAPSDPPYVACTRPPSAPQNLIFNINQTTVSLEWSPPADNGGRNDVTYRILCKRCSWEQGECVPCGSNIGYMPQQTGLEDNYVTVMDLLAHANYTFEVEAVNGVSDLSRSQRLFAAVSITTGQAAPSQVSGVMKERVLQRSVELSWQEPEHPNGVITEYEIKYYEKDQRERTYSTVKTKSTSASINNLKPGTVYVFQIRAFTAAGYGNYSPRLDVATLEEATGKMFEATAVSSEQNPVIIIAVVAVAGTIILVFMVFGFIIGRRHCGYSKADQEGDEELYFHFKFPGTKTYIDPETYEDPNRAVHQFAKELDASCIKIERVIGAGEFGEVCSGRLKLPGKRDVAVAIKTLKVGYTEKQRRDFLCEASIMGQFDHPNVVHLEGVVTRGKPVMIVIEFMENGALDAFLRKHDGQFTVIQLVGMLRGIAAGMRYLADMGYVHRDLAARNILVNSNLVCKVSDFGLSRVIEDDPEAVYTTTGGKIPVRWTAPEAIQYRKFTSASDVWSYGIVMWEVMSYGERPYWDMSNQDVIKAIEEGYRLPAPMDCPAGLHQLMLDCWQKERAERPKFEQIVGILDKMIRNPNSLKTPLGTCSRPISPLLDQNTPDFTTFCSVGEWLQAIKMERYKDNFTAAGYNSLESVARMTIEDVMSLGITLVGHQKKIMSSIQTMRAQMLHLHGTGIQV
Description: Supplement 41589_2023_1459_MOESM4_ESM.xlsx, sheet "CATDS matrix" | column: EPHA7

[4] = tested on: GSPT1;GSPT2; test: Kinobeads competition binding: GSPT1;GSPT2; parameters: species or system human; conditions: target GSPT1;GSPT2
[5] = tested on: INSR; test: Kinobeads competition binding: INSR; parameters: species or system human; conditions: target INSR;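 note: share of total target engagement due to this protein at one drug concentration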
[6] = tested on: IRAK3; test: Kinobeads competition binding: IRAK3; parameters: species or system human; conditions: target IRAK3
[7] = tested on: JAK1; test: Kinobeads competition binding: JAK1; parameters: species or system human; conditions: target JAK1;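 note: target engagement share of this target among all targets at its Kdapp concentration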
[8] = tested on: MAP2K6; test: Kinobeads competition binding: MAP2K6; parameters: species or system human; conditions: target MAP2K6

Measured: CATDS

Nc1ncnc2[nH]c(-c3ccccc3)nc12 [AH5015_KCGS]
0: [1] | [2] | [3] | [4] | [5] | [6] | [7] | [8]

CCN1CCN(Cc2ccc(Nc3ncc(F)c(-c4cc(F)c5nc(C)n(C(C)C)c5c4)n3)nc2)CC1 [Abemaciclib]
0: [1] | [2] | [3] | [4] | [5] | [6] | [7] | [8]

CN(C)C/C=C/C(=O)Nc1cc2c(Nc3ccc(F)c(Cl)c3)ncnc2cc1O[C@H]1CCOC1 [Afatinib]
0: [1] | [3]

CCc1cc2c(cc1N1CCC(N3CCOCC3)CC1)C(C)(C)c1[nH]c3cc(C#N)ccc3c1C2=O [Alectinib]
0: [1] | [2] | [3] | [4] | [5] | [6] | [7] | [8]

N#CC1(c2ccc(NC(=O)c3cccnc3NCc3ccncc3)cc2)CCCC1 [Apatinib]
0: [1] | [2] | [3] | [4] | [5] | [6] | [7] | [8]
